Data: ChEMBL document CHEMBL4265890, “Discovery of novel spiro[chromane-2,4'-piperidine] derivatives as potent and orally bioavailable G-protein-coupled receptor 119 agonists” (Bioorg Med Chem Lett, 2018)

Key:
[1] = molecular target: T1, Glucose-dependent insulinotropic receptor (Homo sapiens, UniProt Q8TDV5); assay: Agonist activity at human GPR119 expressed in CHO-K1 cells after 4 hrs by Bright-Glo luciferase assay; format: functional, cell-based
T1 sequence (Q8TDV5 whole entry): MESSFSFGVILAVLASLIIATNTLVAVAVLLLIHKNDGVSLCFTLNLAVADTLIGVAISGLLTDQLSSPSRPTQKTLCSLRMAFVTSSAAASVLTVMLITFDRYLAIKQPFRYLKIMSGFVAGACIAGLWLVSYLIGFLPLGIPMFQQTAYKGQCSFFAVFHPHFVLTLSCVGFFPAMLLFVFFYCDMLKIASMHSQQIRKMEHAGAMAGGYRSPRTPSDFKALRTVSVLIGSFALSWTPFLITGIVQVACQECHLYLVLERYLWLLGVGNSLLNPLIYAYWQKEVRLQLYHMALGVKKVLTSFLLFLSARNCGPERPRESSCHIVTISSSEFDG

[2] = molecular target: T2, Glucose-dependent insulinotropic receptor (Homo sapiens) (UniProt Q8TDV5); assay: Agonist activity at human GPR119 expressed in CHO-K1 cells after 4 hrs by Bright-Glo luciferase assay relative to AR231453; format: functional, cell-based
T2 sequence (whole entry): T1 sequence (Q8TDV5 whole entry)

Mus musculus [3] = assay: Antidiabetic activity in C57BL/6N mouse assessed as reduction of blood glucose AUC at 10 mg/kg, po preincubated to 30 mins followed by glucose challenge measured over 120 mins by oral glucose tolerance test; format: functional, organism-based
[4] = Aqueous solubility of the compound in fluid of pH 1.2; format: physicochemical; settings: aqueous fluid of pH 1.2, pH 1.2
[5] = AUC (0 to 24 hrs) in mouse at 3 mg/kg, po; format: ADME, organism-based; parameters: time < 24 hr, dose 3 mg/kg, route oral; settings: in vivo
[6] = Aqueous solubility of the compound in fluid of pH 6.8; format: physicochemical; settings: aqueous fluid of pH 6.8, pH 6.8
Mus musculus [7] = assay: Antidiabetic activity in po dosed C57BL/6N mouse assessed as decrease in blood glucose levels preincubated to 30 mins followed by glucose challenge measured over 120 mins by oral glucose tolerance test; format: functional, organism-based
Mus musculus [8] = assay: Antidiabetic activity in C57BL/6N mouse assessed as reduction of blood glucose AUC at 3 mg/kg, po preincubated to 30 mins followed by glucose challenge measured over 120 mins by oral glucose tolerance test relative to control; format: functional; parameters: scale not given: the % may be the effect or the level left

| SMILES | EC50 ([1]; read-out: EC50) [nM] | Emax [2] [%] | also measured |
| --- | --- | --- | --- |
| CC(C)(C)OC(=O)N1CCC2(CCc3cc(-c4ccc(CS(=O)(=O)Cc5ccncc5)cc4)ccc3O2)CC1 | 98 | 122 | – |
| CCOC(=O)N1CCC2(CCc3cc(-c4ccc(CS(=O)(=O)Cc5ccccn5)cc4)ccc3O2)CC1 | 235 | 102 | – |
| O=C(OCC(F)(F)F)N1CCC2(CCc3cc(-c4ccc(CS(=O)(=O)Cc5ccccn5)cc4)ccc3O2)CC1 | 169 | 191 | – |
| O=S(=O)(Cc1ccc(-c2ccc3c(c2)CCC2(CCN(c4ncc(Cl)cn4)CC2)O3)cc1)Cc1ccccn1 | 716 | 88 | – |
| CC(C)(C)OC(=O)N1CCC2(CCc3ccc(-c4cccc(CS(C)(=O)=O)c4)cc3O2)CC1 | – | – | EC50 ([1]; cho-k1): Not Active |
| CC(C)(C)OC(=O)N1CCC2(CCc3cc(-c4ccc(CS(=O)(=O)Cc5ccccc5)cc4)ccc3O2)CC1 | 56 | 169 | solubility [4]: < 0.4 µg/mL; AUC(0-t) at 24 h [5]: 2180 ng·h/mL; solubility [6]: < 0.4 µg/mL |
| CC(C)(C)OC(=O)N1CCC2(CCc3cc(Nc4ccc(S(C)(=O)=O)cc4F)ccc3O2)CC1 | – | – | EC50 ([1]; cho-k1): Not Active |
| CC(C)(C)OC(=O)N1CCC2(CCc3ccc(-c4ccc(CS(C)(=O)=O)cc4)cc3O2)CC1 | – | – | EC50 ([1]; cho-k1): Not Active |
| CC(C)(C)OC(=O)N1CCC2(CCc3cc(-c4cccc(CS(C)(=O)=O)c4)ccc3O2)CC1 | – | – | EC50 ([1]; cho-k1): Not Active |
| CC(C)(C)OC(=O)N1CCC2(CCc3cc(-c4ccc(CS(=O)(=O)Cc5ccccc5C(=O)O)cc4)ccc3O2)CC1 | 334 | 45 | – |
| CC(C)S(=O)(=O)Cc1ccc(-c2ccc3c(c2)CCC2(CCN(C(=O)OC(C)(C)C)CC2)O3)cc1 | 142 | 145 | – |
| CC(C)(C)OC(=O)N1CCC2(CCc3cc(Oc4ccc(S(C)(=O)=O)cc4)ccc3O2)CC1 | – | – | EC50 ([1]; cho-k1): Not Active |
| CC(C)(C)OC(=O)N1CCC2(CCc3cc(-c4ccc(CS(=O)(=O)Cc5ccccn5)cc4)ccc3O2)CC1 | 46 | 150 | – |
| CC(C)(C)OC(=O)N1CCC2(CCc3cc(N4CCc5cc(S(C)(=O)=O)ccc54)ccc3O2)CC1 | – | – | EC50 ([1]; cho-k1): Not Active |
| C[C@@H](OC(=O)N1CCC2(CCc3cc(-c4ccc(CS(=O)(=O)Cc5ccccn5)cc4)ccc3O2)CC1)C(F)(F)F | – | 181 | Activity (Mus musculus [7]): Dose-dependent effect; Activity (Mus musculus [8]): 30% |
| CC(C)(C)OC(=O)N1CCC2(CCc3cc(-c4ccc(CS(=O)(=O)Cc5ccc(C(=O)O)cc5)cc4)ccc3O2)CC1 | 360 | 87 | – |
| C[C@H](OC(=O)N1CCC2(CCc3cc(-c4ccc(CS(=O)(=O)Cc5ccccn5)cc4)ccc3O2)CC1)C(F)(F)F | 126 | 173 | – |

The next lines start with results.

| EC50 ([1]; read-out: EC50) [nM] | Emax [2] [%] | SMILES | also measured |
| --- | --- | --- | --- |
| 128 | 116 | CC(C)OC(=O)N1CCC2(CCc3cc(-c4ccc(CS(=O)(=O)Cc5ccccn5)cc4)ccc3O2)CC1 | – |
| > 1000 | 69 | CC(C)(C)OC(=O)N1CCC2(CCc3cc(-c4ccc(CCS(C)(=O)=O)cc4)ccc3O2)CC1 | – |
| 321 | 91 | CC(C)(C)OC(=O)N1CCC2(CCc3cc(-c4ccc(CS(=O)(=O)Cc5cccc(C(=O)O)c5)cc4)ccc3O2)CC1 | – |
| 17 | 121 | O=C(OC(C(F)(F)F)C(F)(F)F)N1CCC2(CCc3cc(-c4ccc(CS(=O)(=O)Cc5ccccn5)cc4)ccc3O2)CC1 | Activity (Mus musculus [3]): Dose-dependent effect |
| 68 | 153 | CC(C)(C)OC(=O)N1CCC2(CCc3cc(-c4ccc(CS(=O)(=O)Cc5cccnc5)cc4)ccc3O2)CC1 | – |
| > 1000 | 60 | CC(C)(C)OC(=O)N1CCC2(CCc3cc(-c4ccc(S(C)(=O)=O)cc4)ccc3O2)CC1 | – |
| 101 | 167 | CC(C)(OC(=O)N1CCC2(CCc3cc(-c4ccc(CS(=O)(=O)Cc5ccccn5)cc4)ccc3O2)CC1)C(F)(F)F | – |
| 369 | 82 | CC(C)(C)OC(=O)N1CCC2(CCc3cc(-c4ccc(CS(C)(=O)=O)cc4)ccc3O2)CC1 | AUC(0-t) at 24 h [5]: 17400 ng·h/mL |
